Source: patent US20250002526A1, “PHARMACEUTICAL COMPOSITION HAVING ANTI-CANCER IMMUNOSTIMULATING EFFECT AND/OR IMMUNE CHECKPOINT INHIBITION POTENTIATING EFFECT” (KYUSHU UNIVERSITY, NATIONAL UNIVERSITY CORPORATION, priority 2021, published 2025)
Read-outs that look alike come from different tables or passages of the source.

What was measured:
[1] = test system: SULT2B1b-mediated CS production in E0771-SULT cells; assay: CS production inhibitory effect in E0771-SULT cells (LC/MS/MS quantification of CS); assay type: cell-based, mouse; conditions: Mus musculus; for activity at 10 µM: relative to control (100%)
Procedure: CS in each human cancer tissue sample was quantified by a method described in NPL 2. To monitor the amounts of CS and/or oxysterol generated in E0771, 3LL, EG.7-OVA, and MC38 cells irrespective of the presence or absence of SULT2B1b expression, cells of each type were seeded in a 6-well plate at 5×10^5 cells/well, and the culture supernatant and cell pellet were collected after 24 hours. Subsequently, deuterium-labeled internal standard (IS) compounds (d7-CS [[…]] and d6-25-hydroxycholesterol) were added to fractions of the culture supernatant and cell pellet, each of which was subjected to extraction with 1 mL of extraction solvent (methanol/chloroform/water=5:2:2 [v/v/v]) to extract CS and oxysterol from the culture supernatant or cell pellet.
Each sample was vigorously mixed with a vortex for 1 minute, and then ultrasonicated for 5 minutes. Thereafter, the sample was centrifuged at 16,000×g and 4° C. for 5 minutes, and the supernatant (700 μl) was collected in a clean tube. Into this, 235 μl of chloroform and 155 μl of water were added and mixed, and the resultant was then subjected to vortexing followed by centrifugation to separate into an aqueous layer and an organic layer. Subsequently, 200 μl of the lowermost layer was dried under a nitrogen flow.
The dried sample was dissolved in 50 μl of methanol, and CS and oxysterol therein were quantified by liquid chromatography-tandem mass spectrometry (LC/MS/MS) with a triple quadrupole mass spectrometer (LCMS-8060; Shimadzu Corporation) equipped with an electrospray ionization (ESI) ion source in a multiple reaction monitoring (MRM) mode.
• Column: Inertsil ODS-4 (2.1×150 mm; particle size: 3 μm; GL Sciences Inc.) • Column temperature: 40° C. • Flow rate: 0.3 ml/min • Mobile phase: (A) water/acetonitrile (1:2, v/v) containing 5 mM ammonium acetate (B) Methanol/Isopropanol (1:19, v/v) Containing 5 mM Ammonium Acetate • Gradient curve: 0 min→22 min: (B) 0%→100%, • 22 min→27 min: (B) 100%, • 27 min→27.1 min: (B) 100%→0%, • 27.1 min→30 min: (B) 0% • Injection volume: 5 μl • Mass spectrometry mode: positive and negative ion modes • Electrospray voltage: 4 kV in positive ion mode, −3.5 kV in negative ion mode • Nebulizer gas flow rate: 3.0 L/min • Drying gas flow rate: 10.0 L/min • Desolvation temperature: 250° C. • Heat block temperature: 400° C. • Detector voltage: 2.16 kV • Used were MRM mode and 2 msec of dwell time per channel.
Absolute CS and oxysterol contents were calculated from calibration curves. MRM calibration curves were prepared with chromatographic peak areas for the analytes relative to peak areas for internal standards through three times of analysis for standard solutions.
The CS production effects of test compounds (compounds 1 to 19, 21, 23, 25, and 27 to 32) were evaluated with the mouse breast cancer cell line E0771 expressing SULT2B1b (E0771-SULT cells).
Specifically, as in the above description in experimental procedure (12), E0771-SULT cells were seeded in a 6-well plate at a proportion of 5×10^5 cells/well, and cultured in the presence or absence (control) of each test compound for 24 hours. After culturing, CS generated in E0771-SULT cells was quantified by LC/MS/MS according to the description in experimental procedure (12). The CS production capacity (% activity) of cells cultured in the presence of each test compound was evaluated from the percentage relative to the CS production level (control) (100%) in E0771-SULT cells cultured in the absence of the test compound, and the CS production inhibitory effect of the test compound was evaluated.

[2] = target: T1, recombinant human SULT2B1b protein (Homo sapiens, UniProt O00204); assay: SULT assay (in vitro SULT2B1b enzymatic activity measurement); assay type: biochemical; conditions: for activity at 200 µM: test compound 200 μM, relative to DMSO control (100%), read-out: in vitro SULT2B1b assay % activity at 200 μM
T1 sequence (O00204 1-365): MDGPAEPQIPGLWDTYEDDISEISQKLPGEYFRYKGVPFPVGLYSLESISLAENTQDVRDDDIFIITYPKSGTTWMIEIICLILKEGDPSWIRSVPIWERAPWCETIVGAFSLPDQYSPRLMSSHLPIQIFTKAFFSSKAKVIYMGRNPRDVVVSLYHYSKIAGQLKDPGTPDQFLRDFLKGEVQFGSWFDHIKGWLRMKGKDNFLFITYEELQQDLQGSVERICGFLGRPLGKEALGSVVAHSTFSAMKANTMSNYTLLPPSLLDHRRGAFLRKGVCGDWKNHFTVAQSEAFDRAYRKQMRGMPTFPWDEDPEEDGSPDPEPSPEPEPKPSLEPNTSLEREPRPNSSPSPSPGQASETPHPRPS
Procedure: For screening for a SULT2B1b inhibitor, enzymatic activity measurement for SULT2B1b was carried out by a method described in a previous report (NPL 2) with slight modifications.
The reaction solution (50 μl) was composed of 1 to 5 μg of recombinant human SULT2B1b protein, 10 μM [^3H]cholesterol (approximately 4,000 dpm/pmol), 10 mM Tris-HCl (pH 7.5, containing 5 mM MgCl2) containing 0.1 mM 3′-phosphoadenosine 5′-phosphosulfate (PAPS), 0.2 mM 2-hydroxypropyl-β-cyclodextrin, and 5% (v/v) ethanol. Recombinant human SULT2B1b protein was pre-incubated with 1 μl of a test compound (final concentration: 40 or 200 μM) or DMSO (control) at room temperature for 15 minutes, 2 mM PAPS (2.5 μl) was then added to initiate reaction, the resultant was reacted at 37° C. for 15 minutes, and 0.8 ml of ethanol was added to terminate the reaction.
The solution after the reaction was subjected to thin-layer chromatography (TLC) for separation, and then to a liquid scintillation counter to quantify radiolabeled CS.
From the percentage to the amount ([…]) of radiolabeled CS generated through reaction in the absence of the test compound (DMSO) (control), the SULT2B1b activity (% activity) of SULT2B1b protein in the presence of the test compound was evaluated, and the effect of the test compound to inhibit SULT2B1b-mediated CS production (CS production inhibitory effect) was evaluated.
In enzyme assay, SULT assay was performed with use of cholenoic acid as a compound to be tested at different cholesterol and PAPS concentrations (wherein 0.5 to 1 μg of recombinant human SULT2B1b protein was used, the preincubation time and reaction time were each 10 minutes), and the results were fitted to the Michaelis-Menten equation by using Prism 9 (GraphPad Software, Inc.) to perform enzyme kinetic analysis for the inhibition by cholenoic acid.
SULT assay was performed for the compounds as test compounds by the method described in (14) of “II. Experimental procedure” in Experiment Example 1 to evaluate the SULT2B1b inhibitory effects of the compounds.

[3] = 24 h, read-out: CS production % activity at 10 μM, E0771-SULT cells, 24 hours, test compound 10 μM (Table 1)

`C[C@H](CCC(=O)N1CCOCC1)[C@H]1CC[C@H]2[C@@H]3CC=C4C[C@H](N=[N+]=[N-])CC[C@]4(C)[C@H]3CC[C@]12C` [Compound 12, (R)-4-((3R,8S,9S,10R,13R,14S,17R)-3-azido-10,13-dimethyl-2,3,4,7,8,9,10,11,12,13,14,15,16,17-tetradecahydro-1H-cyclopenta[a]phenanthren-17-yl)-1-morpholinopentan-1-one] gave an activity at 10 µM [1, 3] of 98.4% and an activity at 200 µM [2] of 8.3%.
`CC(=O)OC1CCC2(C)C(=CCC3C2CCC2(C)C(C(C)CCC(=O)O)CCC32)C1` (centres unmarked) [Compound 17, 3-acetoxy-5-cholenoic acid] was tested, and the activity at 10 µM [1, 3] was 43.7%, the activity at 10 µM ([1]; 24 h, read-out: CS production % activity at 10 μM, E0771-SULT cells, 24 hours, third concentration column of Table 1, head again printed 10 μM) was 44.9% and the activity at 20 µM ([1]; 24 h, read-out: CS production % activity at 20 μM, E0771-SULT cells, 24 hours, test compound 20 μM, relative to control without compound (100%)) was 52.4%. The IC50 ([1]; read-out: IC50 value (CS production)) was 7 µM, the IC50 ([2]; recombinant human SULT2B1b, read-out: IC50 value (enzyme assay)) was 186 µM and the activity at 200 µM [2] was 66.4%.
